From patent US20250163057A1, “DCN-1 MODULATING COMPOUNDS AND METHODS OF USE THEREOF” (Cellarity, Inc., priority 2023, published 2025)
pIC50: −log10 of the molar value. Like-named read-outs stand apart in the source and are kept apart here.

Tests used:
DCN1 protein = DCN1 protein (Homo sapiens (Human), UniProt Q96GG9); assay: Intact Protein MS Analysis with the RapidFire-TOF System (covalent adduct formation); type: binding; conditions: MS Emax; 400 nM DCN1, 3 hours at room temperature
Protocol: An MS assay was performed to evaluate the ability of the compounds to covalently modify DCN-1.
DCN1 protein, His-TEV-DCN1, were expressed in E. Coli. The His-tagged protein was first purified with an Ni-NTA column. The His-tag was cleaved using His-tag TEV protease and the His-tags were removed using a second Ni-NTA column. Protein purity was verified with SDS-PAGE and intact MS. DCN1 was dissolved in a buffer containing 25 mM Tris-HCl, 200 mM NaCl, and 1 mM DTT at 400 nM. 11 concentrations of compounds were added to the DCN1 solution and incubated at room temperature for 3 hours, unless otherwise specified. The reaction plates were quenched by adding 0.2% formic acid. […] The cartridge was re-equilibrated with loading buffer for 1 second before collection of the next sample. The Q-TOF was operated in TOF-only positive ionization mode set to the following parameters: Gas Temp=350 C, Drying Gas=7 l/min, Nebulizer=50 psi, Sheath Gas Temp=400 C, Sheath Gas Flow=12 l/min, Vcap=4000 V, Nozzle Voltage=1000 V, Fragmentor=125 V, Skimmer=65 V and Oct 1 RF Vpp=750V. Raw MS data files were deconvoluted and analyzed using the Agilent MassHunter Bioconfirm software package to identify both parent protein and expected compound adduct mass signatures.

[1] = test system: Cullin-3 (CUL3) neddylation; assay: AlphaLISA assay for Cullin-3 (CUL3) neddylation in TF 1 cells; type: cell-based; conditions: Homo sapiens, 3 hours treatment
In short: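 TF 1 cells in unsupplemented IMDM treated with compound concentrations for 3 h, then lysed. CUL3 neddylation detected by AlphaLISA (biotinylated anti-NEDD8, anti-CUL3 acceptor beads overnight, streptavidin donor beads 1 h); normalized to vehicle (0%) and 1 μM DI-1548 (100%), IC50 from Hill fits.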

[2] = target: DCN1 (DCUND1) protein PONY domain (Homo sapiens (Human), UniProt Q96GG9); assay: TR-FRET assay, DCN1 binding with FAM-labeled probe
DCN1 (DCUND1) protein PONY domain, sequence (Q96GG9 60-248): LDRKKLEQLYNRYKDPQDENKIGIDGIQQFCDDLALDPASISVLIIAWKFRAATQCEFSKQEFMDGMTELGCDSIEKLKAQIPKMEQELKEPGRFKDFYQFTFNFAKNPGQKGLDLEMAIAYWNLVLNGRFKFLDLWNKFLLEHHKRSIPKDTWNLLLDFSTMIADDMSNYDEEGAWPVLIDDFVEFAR
In short: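 Biotinylated DCN1 PONY domain, labeled with streptavidin-Tb, was competed against a FAM-labeled non-covalent DCN1 inhibitor probe in buffer with TritonX and 200 mM NaCl. Conditions were 5 nM DCN1 with 20 nM FAM-probe, or 0.31 nM DCN1 with 100 nM FAM-plus 800 nM unlabeled probe. The TR-FRET ratio was read at 1, 5 and 24 h (0.1% DMSO).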

DCN1 protein, sequence (Q96GG9 whole entry): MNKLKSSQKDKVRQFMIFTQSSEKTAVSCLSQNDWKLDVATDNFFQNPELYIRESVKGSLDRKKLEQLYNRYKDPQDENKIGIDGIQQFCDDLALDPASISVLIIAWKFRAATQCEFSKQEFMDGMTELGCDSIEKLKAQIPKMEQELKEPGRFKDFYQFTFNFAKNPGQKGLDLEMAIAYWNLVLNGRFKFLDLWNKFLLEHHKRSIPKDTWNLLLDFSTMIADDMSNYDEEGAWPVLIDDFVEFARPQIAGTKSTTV

Structure (SMILES)	% Adduct Formation (DCN1 protein)	also measured
CCN1C(=O)[C@@H](NC(=O)c2cccc(C(F)(F)F)c2)[C@@H](c2ccc(F)cc2)c2c(NC(=O)C(F)Cl)nn(-c3ccccc3)c21 (mixture of isomers) [Compound I-120]	+ (MS Emax % adduct formation greater than or equal to 0.0 and less than or equal to 30.0)	–
CCN1C(=O)[C@@H](NC(=O)c2cccc(C(F)(F)F)c2)[C@@H](c2ccc(F)cc2)c2c([C@@H](C)NC(=O)/C=C/C(F)(F)F)nn(-c3ccccc3)c21 (mixture of isomers) [Compound I-164]	+ (MS Emax % adduct formation greater than or equal to 0.0 and less than or equal to 30.0)	–
CCN1C(=O)[C@@H](NC(=O)c2cccc(C(F)(F)F)c2)[C@@H](c2ccc(F)cc2)c2c([C@@H](C)NC(=O)/C=C/CN3CCOCC3)nn(-c3ccccc3)c21 (mixture of isomers) [Compound I-165]	+ (MS Emax % adduct formation greater than or equal to 0.0 and less than or equal to 30.0)	–
CCN1C(=O)[C@@H](NC(=O)c2cccc(C(F)(F)F)c2)[C@@H](c2ccc(F)cc2)c2c([C@@H](C)NC(=O)C3=CCCC3)nn(-c3ccccc3)c21 (mixture of isomers) [Compound I-166]	+ (MS Emax % adduct formation greater than or equal to 0.0 and less than or equal to 30.0)	–
CCN1C(=O)[C@@H](NC(=O)c2cccc(C(F)(F)F)c2)[C@@H](c2ccc(F)cc2)c2c([C@@H](C)NC(=O)COc3c(F)c(F)cc(F)c3F)nn(-c3ccccc3)c21 (mixture of isomers) [Compound I-168]	+ (MS Emax % adduct formation greater than or equal to 0.0 and less than or equal to 30.0)	–
C=CC(=O)N[C@H](C)c1nn(-c2ccccc2)c2c1[C@H](c1ccc(F)cc1)[C@H](NC(=O)c1cccc(C(F)(F)F)c1)C(=O)N2CC (mixture of isomers) [Compound I-174]	+ (MS Emax % adduct formation greater than or equal to 0.0 and less than or equal to 30.0)	–
CCN1C(=O)[C@@H](NC(=O)c2cccc(C(F)(F)F)c2)[C@@H](c2ccc(F)cc2)c2c([C@H](C)NC(=O)CCl)nn(-c3ccccc3)c21 (mixture of isomers) [Compound I-175]	+ (MS Emax % adduct formation greater than or equal to 0.0 and less than or equal to 30.0)	–
C=C(C)C(=O)N[C@H](C)c1nn(-c2ccccc2)c2c1[C@H](c1ccc(F)cc1)[C@H](NC(=O)c1cccc(C(F)(F)F)c1)C(=O)N2CC (mixture of isomers) [Compound I-191]	+ (MS Emax % adduct formation greater than or equal to 0.0 and less than or equal to 30.0)	–
CC#CC(=O)N[C@H](C)c1nn(-c2ccccc2)c2c1[C@H](c1ccc(F)cc1)[C@H](NC(=O)c1cccc(C(F)(F)F)c1)C(=O)N2CC (mixture of isomers) [Compound I-209]	+ (MS Emax % adduct formation greater than or equal to 0.0 and less than or equal to 30.0)	–
CCN1C(=O)[C@@H](NC(=O)c2cccc(C(F)(F)F)c2)[C@@H](c2ccc(F)cc2)c2c([C@@H](C)NC(=O)/C=C/CN(C)C)nn(-c3ccccc3)c21 (mixture of isomers) [Compound I-210]	+ (MS Emax % adduct formation greater than or equal to 0.0 and less than or equal to 30.0)	–
CCN1C(=O)[C@@H](NC(=O)c2cccc(C(F)(F)F)c2)[C@@H](c2ccc(F)cc2)c2c([C@H](C)NC(=O)C(C)Cl)nn(-c3ccccc3)c21 (mixture of isomers) [Compound I-211]	+ (MS Emax % adduct formation greater than or equal to 0.0 and less than or equal to 30.0)	–
C=C(CN(C)C)C(=O)N[C@H](C)c1nn(-c2ccccc2)c2c1[C@H](c1ccc(F)cc1)[C@H](NC(=O)c1cccc(C(F)(F)F)c1)C(=O)N2CC (mixture of isomers) [Compound I-213]	+++ (MS Emax % adduct formation greater than 80.0 and less than or equal to 100.0)	–
CCN1C(=O)[C@@H](NC(=O)c2cccc(C(F)(F)F)c2)[C@@H](c2ccc(F)cc2)c2c([C@@H](C)NS(=O)(=O)CCl)nn(-c3ccccc3)c21 (mixture of isomers) [Compound I-215]	+ (MS Emax % adduct formation greater than or equal to 0.0 and less than or equal to 30.0)	–
CCN1C(=O)[C@@H](NC(=O)c2cccc(C(F)(F)F)c2)[C@@H](c2ccc(F)cc2)c2c([C@@H](C)NC(=O)C3=CCC3)nn(-c3ccccc3)c21 (mixture of isomers) [Compound I-237]	+ (MS Emax % adduct formation greater than or equal to 0.0 and less than or equal to 30.0)	–
C/C=C/C(=O)N[C@H](C)c1nn(-c2ccccc2)c2c1[C@H](c1ccc(F)cc1)[C@H](NC(=O)c1cccc(C(F)(F)F)c1)C(=O)N2CC (mixture of isomers) [Compound I-238]	+ (MS Emax % adduct formation greater than or equal to 0.0 and less than or equal to 30.0)	–
CCN1C(=O)[C@@H](NC(=O)c2cccc(C(F)(F)F)c2)[C@@H](c2ccc(F)cc2)c2c(CNC(=O)C(Cl)Cl)nn(-c3ccccc3)c21 (racemic) [Compound I-169]	+ (MS Emax % adduct formation greater than or equal to 0.0 and less than or equal to 30.0)	–
CCN1C(=O)[C@@H](NC(=O)c2cccc(C(F)(F)F)c2)[C@@H](c2ccc(F)cc2)c2c(CN3C(=O)C=CC3=O)nn(-c3ccccc3)c21 (racemic) [Compound I-170]	+ (MS Emax % adduct formation greater than or equal to 0.0 and less than or equal to 30.0)	–
CCN1C(=O)[C@@H](NC(=O)c2cccc(C(F)(F)F)c2)[C@@H](c2ccc(F)cc2)c2c(NC(=O)COc3c(F)c(F)cc(F)c3F)nn(-c3ccccc3)c21 (racemic) [Compound I-176]	+ (MS Emax % adduct formation greater than or equal to 0.0 and less than or equal to 30.0)	–
CCN1C(=O)[C@@H](NC(=O)c2cccc(C(F)(F)F)c2)[C@@H](c2ccc(F)cc2)c2c(CNC(=O)COc3c(F)c(F)cc(F)c3F)nn(-c3ccccc3)c21 (racemic) [Compound I-182]	+ (MS Emax % adduct formation greater than or equal to 0.0 and less than or equal to 30.0)	–
CCN1C(=O)[C@@H](NC(=O)c2cccc(C(F)(F)F)c2)[C@@H](c2ccc(F)cc2)c2c(CNC(=O)/C=C/CN3CCOCC3)nn(-c3ccccc3)c21 (racemic) [Compound I-183]	+ (MS Emax % adduct formation greater than or equal to 0.0 and less than or equal to 30.0)	–
C=CS(=O)(=O)Nc1nn(-c2ccccc2)c2c1[C@H](c1ccc(F)cc1)[C@H](NC(=O)c1cccc(C(F)(F)F)c1)C(=O)N2CC (racemic) [Compound I-187]	+++ (MS Emax % adduct formation greater than 80.0 and less than or equal to 100.0)	–
C=C(C(=O)N(C)C)c1nn(-c2ccccc2)c2c1[C@H](c1ccc(F)cc1)[C@H](NC(=O)c1cccc(C(F)(F)F)c1)C(=O)N2CC (racemic) [Compound I-188, rac-N-((4R,5R)-3-(3-(dimethylamino)-3-oxoprop-1-en-2-yl)-7-ethyl-4-(4-fluorophenyl)-6-oxo-1-phenyl-4,5,6,7-tetrahydro-1H-pyrazolo[3,4-b]pyridine-5-yl)-3-(trifluoromethyl)benzamide]	+ (MS Emax % adduct formation greater than or equal to 0.0 and less than or equal to 30.0)	–
CCN1C(=O)[C@@H](NC(=O)c2cccc(C(F)(F)F)c2)[C@@H](c2ccc(F)cc2)c2c(C=O)nn(-c3ccccc3)c21 (racemic) [Compound I-189, rac-N-((4R,5R)-7-ethyl-4-(4-fluorophenyl)-3-formyl-6-oxo-1-phenyl-4,5,6,7-tetrahydro-1H-pyrazolo[3,4-b]pyridine-5-yl)-3-(trifluoromethyl)benzamide]	+ (MS Emax % adduct formation greater than or equal to 0.0 and less than or equal to 30.0)	–
CCN1C(=O)[C@@H](NC(=O)c2cccc(C(F)(F)F)c2)[C@@H](c2ccc(F)cc2)c2c(CN3CC=CC3=O)nn(-c3ccccc3)c21 (racemic) [Compound I-193]	+ (MS Emax % adduct formation greater than or equal to 0.0 and less than or equal to 30.0)	–
CCN1C(=O)[C@@H](NC(=O)c2cccc3ccoc23)[C@@H](C2CC2)c2c(C(=O)N3[C@H](C#N)C[C@H]4C[C@H]43)nn(C3CCOCC3)c21 [Compound I-707]	–	pIC50 [1]: ≥ 7.00; pIC50 ([2]; 24 hr after treatment with compound, read-out: TR FRET IC50 24 hr): ≥ 6.70; pIC50 ([2]; read-out: TR FRET IC50 1 hr, 1 hr after treatment with compound): ≥ 6.70
